One data set has as its system CCRF-CEM cells. Description: In vitro growth inhibition / cytotoxicity against CCRF-CEM human leukemia cells. The data set is classed as cell-based. The following applies: 72 hours of incubation, read-out: IC50 (concentration required for 50% inhibition of growth). The method, then: The in vitro data were obtained using CCRF-CEM cells, a human leukemia cell line. Foley et al., Cancer, 18:522 (1965). These cells were grown using standard techniques. See, e.g., G. B. Grindey, et al., Journal of Molecular Pharmacoloy, 16:601 (1979). Dose-response curves were generated for various compounds to determine the concentration required for 50% inhibition of growth (IC50). Cluster plates were prepared in duplicate with the compound at various concentrations. Test compounds were dissolved initially in DMSO at a concentration of 4 mg/ml and further diluted with solvent to the desired concentration. Cells in Roswell Park Memorial Institute 1640 media supplemented with 10% dialyzed fetal bovine serum, and 25 mM HEPES buffer were added to the well at a final concentration of 4.8×10^4 cells/well in a total volume of 2.0 ml. After 72 hours of incubation (95% air, 5% CO2), cell numbers were determined on a ZBI Coulter counter. Cell number for indicated controls at the end of incubation was usually (4-6)×10^5 cells/well. Cell viability was also measured by staining with 3-[4,5-dimethylthiazol-2-yl]-2,5-diphenyl-tetrazolium bromide (MTT) using standard techniques. R. I. Freshney, Culture of Animal Cells: A Manual of Basic Technique, 253-254 (2d ed. 1987).
Column 1 refers to the example number of the compound tested; Column 2 depicts the in vitro cytoxicity against CCRF-CEM cells by relating the concentration of the test compound required for 50% inhibition of growth (IC50) of the cells in the well.

In the next data set the test system is 6C3HED lymphosarcoma. Description: In vivo antitumor activity in C3H mice bearing 6C3HED lymphosarcoma allograft (Gardner lymphosarcoma), oral. An excerpt:
A second tumor model employed C3H mice bearing the widely used allograft 6C3HED lymphosarcoma, also known as the Gardner lymphosarcoma (GLS). The 6C3HED lymphosarcoma was obtained from the Division of Cancer Treatment, National Cancer Institute, Tumor Bank, maintained at E. G. and G. Mason Research (Worcester, Mass.).
First passage tumors were stored in liquid nitrogen, using standard techniques. The transplanted tumor was reestablished from the Tumor Bank every six months or as needed. The tumor was maintained by serial passage twice weekly in the host mice.
In the procedures utilized here, the tumor was removed from passage animals and minced into 1- to 3-mm cubic fragments using sterile techniques. Tumor pieces were checked for sterility using both Antibiotic Medium 1 and Brain Heart Infusion (Difco, Detroit, Mich.). The xenograft tumor pieces were implanted into the recipient CD1 Nu/Nu mice subcutaneously in an axillary site by trochar. The allograft 6C3HED tumor pieces were implanted into the recipient C3H mice in an analogous fashion.
Drug therapy on the appropriate schedule was initiated seven days after tumor implantation for the HXGC3 xenograft and the day after tumor implantation for the 6C3HED allograft. The compound being tested was mixed with 2.5% Emulphor EL620 from GAF Corporation (1:40 dilution in 0.9% saline). The total dosage volume for each administration was 0.5 ml. All animals were weighed at the beginning and end of administration of the subject compounds. Food and water were provided ad libitum.
Each control group and each dosage level of the treated groups consisted of 9 or 10 mice selected at random from the pool of implanted animals. The formulations were administered orally by gavage with the use of an 18-gauge needle. Compounds were dosed daily for 10 days for the studies using the human tumor xenografts and 8 days for the studies using the allograft.
The xenograft tumor was measured five days after treatment ended with two dimensional measurements (width and length) of the tumor taken using digital electronic calipers interfaced to a microcomputer. J. F. Worzalla, et al., Investigational New Drugs, 8:241-251 (1990). The allograft was measured in a like manner the day after the dosing schedule ended. Tumor weights were calculated from these measurements using the following formula: [formula]
At least one control group of an equal number of mice was treated with the same volume of 2.5% Emulphor only. The percent inhibition is determined by subtracting the ratio of the mean tumor size of the test group relative to the control group from one and multiplying the result by 100.
The results of several experiments in mice bearing the HXGC3 human colon adenocarcinoma and the 6C3HED lymphosarcoma when the Formula I compounds were administered orally are provided in Table II. In the table, Column 1 refers to the example number of the compound tested; Column 2 describes the particular human tumor xenograft or mouse allograft being studied; Column 3 gives the dosage level of the compound of Formula I in milligrams per kilogram of body weight; Column 4 describes the percent inhibition of tumor growth; and Column 5 tallies the number of mice which died during the course of the experiment relative to the total number of animals in the group.

The test system of data set [1] is HXGC3 human colon adenocarcinoma xenograft. Kind of data set: In vivo antitumor activity in CD1 Nu/Nu mice bearing HXGC3 human colon adenocarcinoma xenograft, oral. The following applies: daily for 10 days.
Procedure: One of the tumor models used for showing the anti-neoplastic activity of the sulfonylureas of this invention was the human colon xenograft HXGC3. […] This tumor was obtained from St. Jude's Children's Research Hospital and has been widely used as a human tumor model.
The xenograft tumor was measured five days after treatment ended with two dimensional measurements (width and length) of the tumor taken using digital electronic calipers interfaced to a microcomputer. […] Tumor weights were calculated from these measurements using the following formula: [formula]
Where [2] appears, read: 6C3HED, 1200 mg/kg, oral, daily for 8 days, second entry of Example 1.

SMILES strings stand for the structures. In brackets after ≈: the same amount, converted by molar mass.

With `C=Cc1cccc(S(=O)(=O)NC(=O)Nc2ccc(Cl)cc2)c1` [Example 3, N-[[(4-chlorophenyl)amino]carbonyl]-3-(ethenyl)benzenesulfonamide], the IC50 in the data set with CCRF-CEM cells was determined as 14.4 µg/mL (≈ 42.8 µM). The “Toxic/Total (mice which died / total in group)” value with 6C3HED lymphosarcoma (6C3HED, 150 mg/kg, oral, daily for 8 days, entry of Example 3) is 0/10; in the data set on 6C3HED lymphosarcoma (6C3HED, 300 mg/kg, oral, daily for 8 days, entry of Example 3), 0/10. For the same compound, the “Percent Inhibition of tumor growth” value in the data set on 6C3HED lymphosarcoma (po, 150 mg/kg, 192 h) is 60%; in the data set on 6C3HED lymphosarcoma (po, 300 mg/kg, 192 h) it was 83%.

Consider `C=Cc1ccc(S(=O)(=O)NC(=O)Nc2ccc(Cl)c(Cl)c2)cc1` [Example 2, N-[[(3,4-dichlorophenyl)amino]carbonyl]-4-(ethenyl)benzenesulfonamide], for which the IC50 in the data set on CCRF-CEM cells worked out at 9.3 µg/mL (≈ 25.1 µM). Moreover, in data set [1] (150 mg/kg), the “Percent Inhibition of tumor growth” value is recorded as 93% and the “Toxic/Total (mice which died / total in group)” value is given as 0/7. Further, in data set [1] (300 mg/kg), the “Percent Inhibition of tumor growth” value is 97% and the “Toxic/Total (mice which died / total in group)” value is listed as 1/7.

For `C=Cc1ccc(S(=O)(=O)NC(=O)Nc2ccc(Cl)cc2)cc1` [Example 1, N-[[(4-chlorophenyl)amino]carbonyl]-4-(ethenyl)benzenesulfonamide], the IC50 with CCRF-CEM cells amounted to 19.8 µg/mL (≈ 58.8 µM). The “Toxic/Total (mice which died / total in group)” value was 0/10 with 6C3HED lymphosarcoma (6C3HED, 37.5 mg/kg, oral, daily for 8 days, second entry of Example 1); 0/10 in the data set on 6C3HED lymphosarcoma (6C3HED, 75 mg/kg, oral, daily for 8 days, second entry of Example 1); 0/10 with 6C3HED lymphosarcoma (6C3HED, 150 mg/kg, oral, daily for 8 days, first entry of Example 1); 0/10 with 6C3HED lymphosarcoma (6C3HED, 150 mg/kg, oral, daily for 8 days, second entry of Example 1); 1/10 in the data set on 6C3HED lymphosarcoma (6C3HED, 300 mg/kg, oral, daily for 8 days, first entry of Example 1); 1/10 in the data set on 6C3HED lymphosarcoma (6C3HED, 300 mg/kg, oral, daily for 8 days, second entry of Example 1). Besides, the “Toxic/Total (mice which died / total in group)” value in the data set with 6C3HED lymphosarcoma (6C3HED, 600 mg/kg, oral, daily for 8 days, second entry of Example 1) is listed as 2/10; in the data set on 6C3HED lymphosarcoma (setting [2]), 10/10. Besides, the “Percent Inhibition of tumor growth” value in the data set on 6C3HED lymphosarcoma (setting [2]) is “Toxic”; in the data set with 6C3HED lymphosarcoma (po, 37.5 mg/kg, 192 h), 34%; in the data set with 6C3HED lymphosarcoma (po, 75 mg/kg, 192 h), 66%; in the data set on 6C3HED lymphosarcoma (po, 600 mg/kg, 192 h) it was 100%.

Source of the values: patent US6174921A, “Antitumor compositions and methods of treatment” (priority 1999, dated 2001).
